Results on 3 molecules are retold here after patent publication US8226965B2, “Methods of treating fungal, yeast and mold infections” (priority 2008, dated 2012).

Series [1] concerns Trichophyton rubrum, Trichophyton mentagrophytes and Epidermophyton floccosum. The experiment in a line: Spontaneous resistance development, overall. It counts as cell-based. The protocol: Phenotypically resistant isolates were tested for MICs and compared to parental MICs.
Series [2] concerns T. rubrum mycelia and microconidia. The experiment in a line: Time-kill experiments. As to conditions: for reduction in colony counts: 16×MIC, up to 24 hours, hyphae or microconidia in water (nongrowth). It counts as cell-based, Trichophyton rubrum. As for the experimental part:
Time-kill experiments. […] Part of the conidial suspension was pelleted and resuspended in RPMI 1640 medium and grown for 16-18 hours overnight at room temperature to allow germination of microconidia. After germination, the hyphae were collected by centrifugation and resuspended in distilled water. […] Colony-forming units were counted after four days of incubation at 35° C.

For series [3] the following is noted: cited from earlier work.

Each structure is given as a SMILES string.

With `Cc1cc(C2CCCCC2)n(O)c(=O)c1` [Ciclopirox], in series [1], the “stable resistance of recovered isolates” value is given as “none of the isolates were stably resistant”. Further, the “reduction in colony counts” value in series [2] is given as “None of the other compounds significantly reduced colony counts”. Moreover, the “activity on nongrowing mycelia and conidia” value in series [2] (FIG. 10) is “no activity against the conidial form”.

Consider `CN(C/C=C/C#CC(C)(C)C)Cc1cccc2ccccc12.Cl` [Terbinafine hydrochloride], for which, in series [3], the solubility in dichloromethane result is on record as “freely soluble” and the solubility in methanol result is “freely soluble”.

Regarding `CN(C/C=C/C#CC(C)(C)C)Cc1cccc2ccccc12` [Terbinafine], the “stable resistance of recovered isolates” value in series [1] is “none of the isolates were stably resistant”. Also, in series [2], the “reduction in colony counts” value is reported as “None of the other compounds significantly reduced colony counts”.
